Data reported in patent US7071218B2, “N-substituted heterocycles for the treatment of hypercholesteremia, dyslipidemia and other metabolic disorders; cancer, and other diseases” (Incyte San Diego Incorporated, priority 2001, dated 2006).

Key:
[1] = Oral treatment of hypercholesterolemia in Sprague Dawley rats on a high cholesterol atherogenic diet (serum cholesterols); assay type: in vivo; details: 20 mg/kg once daily by oral gavage for five days
Experimental: Six week-old male Sprague Dawley rats (HSD, Harlan) were housed in a fixed 12–12-hr artificial light-dark cycle, and maintained on a high cholesterol, atherogenic diet ad libitum (# C13002, Research Diets, New Jersey).
Animals were maintained on this diet throughout the course of the study.
Following six days of maintenance on the high cholesterol diet, the animals were bled from the tail vein (100–200 μL of whole blood) and serum levels of total cholesterol were measured in duplicate (Infinity Cholesterol Kit; Sigma, St. Louis, Mo.). Based on these initial measures, animals were sorted into groups with approximately the same average serum cholesterol levels. Once sorted, the animals were housed three per cage and maintained on the high cholesterol diet ad libitum.
Treatment groups (n=6/group): • 1) High cholesterol fed control (sesame oil) • 2) Compound 7 (20 mg/kg; once daily)
Compound 7 was mixed in sesame oil, and administered to animals in a volume of 3 mL/kg/dose. Compound 7 was administered by oral gavage daily for five consecutive days.
To monitor the effect of Compound 7, animals were bled from the tail vein five days after commencement of oral treatment. Serum cholesterols were measured in duplicate. The blood is kept at room temperature to allow coagulation, after which the serum is separated and assayed for total cholesterol (see FIG. 1), high density lipoprotein cholesterol (see FIG. 2) and low density lipoprotein cholesterol levels (see FIG. 3). […] Similarly, Compound 7 reduced LDL cholesterol levels compared to controls (ANOVA, Fisher's Least significant difference test, p≦0.01). Finally, Compound 7 increased HDL cholesterol levels compared to controls (ANOVA, Fisher's Least significant difference test, p<0.01).

PPARγ = molecular target: T1, PPARγ (Homo sapiens, UniProt P37231); test: In vitro transactivation assay in CV-1 cells, antagonism of BRL49653-induced Gal-PPARγ activation; assay type: cell-based; details: with 1 μM agonist BRL49653, dose-dependent
T1 construct: expressed in transfected cells; host or cells: CV-1 (green monkey kidney) cells, transient calcium phosphate transfection
T1 sequence (P37231 238-503 limits assumed): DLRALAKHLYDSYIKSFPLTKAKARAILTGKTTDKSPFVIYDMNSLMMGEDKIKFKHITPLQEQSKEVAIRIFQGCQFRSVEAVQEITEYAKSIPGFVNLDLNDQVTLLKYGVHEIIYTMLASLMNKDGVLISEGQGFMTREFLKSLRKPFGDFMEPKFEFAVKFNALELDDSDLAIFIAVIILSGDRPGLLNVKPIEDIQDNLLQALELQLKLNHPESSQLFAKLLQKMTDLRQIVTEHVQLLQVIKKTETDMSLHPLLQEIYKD
Text: In vitro screens such as the transactivation assay can be used to measure the ability of a compound to inhibit a nuclear receptor regulating lipid or carbohydrate uptake, synthesis or metabolism. In the assay described herein compounds can be identified that can inhibit activation of the following nuclear receptors: LXR, PPARα, PPARγ and FXR. This activity can be useful to treat lipid disorders such as hypercholesteremia and obesity.
Cell line: Kidney Green Monkey CV-1 cells.
Growing culturing medium: Dulbecco's modified Eagle's medium (DMEM) supplememnted with 10% fetal calf serum (FCS).
Procedure: CV-1 cells were plated in 48 well-plate culture plates, at a density of 10,000 cells/well, 24 h prior to transfection. One to three hours before transfection, cells were fed with fresh medium. A modified calcium phosphate precipitation procedure was used for transient transfection (Pfahl, M. et al., 1990, Methods in Enzymology 189: 256).
Typically, 40 ng reporter plasmid and 20 ng of each receptor expression vector were mixed, together with 10 ng of β-galactosidase control plasmid (pCH110, Pharmacia, Piscataway, N.J.) and Bluescript plasmid to obtain a total of 400 ng DNA per well. To this mixture 1 μl of 2.5M CaCl2 and 10 μl of BBS buffer, pH 6.95, were added afterward. […]

CN(C)c1cc2c(cc1-c1ccc3cc(/C=C4\SC(=S)N(CC(=O)O)C4=O)ccc3c1)C(C)(C)CCC2(C)C [Compound 7, {5-[6-(3-Dimethylamino-5,5,8,8-tetramethyl-5,6,7,8-tetrahydro-naphthalen-2-yl)-naphthalen-2-ylmethylene]-4-oxo-2-thioxo-thiazolidin-3-yl}-acetic acid]
HDL cholesterol levels compared to controls ([1]; p<0.01): increased
LDL cholesterol levels compared to controls ([1]; p≦0.01): reduced
total serum cholesterol compared to control animals ([1]; p≦0.01): significantly reduced
inhibition at 10 µM (PPARγ): 80 to 90%
